Where two headings read alike, the source gives them in different places.
How the values were obtained:
[1] = system: Key Grass and Sedge Weeds as well as Grass Crops; assay: Post-emergent Test II herbicidal activity (Table 16); type: in vivo; conditions: post-emergence, 336 h, 14 d; for pest or weed control at 35 g/ha: 35 g ai/ha; for pest or weed control at 70 g/ha: 70 g ai/ha; for pest or weed control at 140 g/ha: 140 g ai/ha
Summary of the method: (§1)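 Visual injury rating (0 = none, 100% = complete kill) made 14 d after treatment, relative to untreated plants. Compounds in an acetone/DMSO/aqueous crop-oil/surfactant spray, at top rate and serial 1/2×-1/16× rates, were applied at 187 L/ha overhead to first-second true leaf plants raised 7-21 d in greenhouse.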

[2] = system: Key Broadleaf Weed and Crop Species; assay: Post-emergent Test II herbicidal activity (Table 15); type: in vivo; conditions: post-emergence, 336 h, 14 d; for pest or weed control at 35 g/ha: 35 g ai/ha; for pest or weed control at 70 g/ha: 70 g ai/ha; for pest or weed control at 140 g/ha: 140 g ai/ha
Summary of the method: as §1

[3] = Cyperus esculentus, yellow nutsedge (Cyperus esculentus), read-out: Visual Growth Reduction (%) 14 Days After Application, CYPES
[4] = Echinochloa crus-galli, barnyardgrass (Echinochloa crus-galli), read-out: Visual Growth Reduction (%) 14 Days After Application, ECHCG
[5] = Oryza sativa, rice (Oryza sativa), read-out: Visual Growth Reduction (%) 14 Days After Application, ORYSA
[6] = Setaria faberi, giant foxtail (Setaria faberi), read-out: Visual Growth Reduction (%) 14 Days After Application, SETFA
[7] = Triticum aestivum, wheat, spring (Triticum aestivum), read-out: Visual Growth Reduction (%) 14 Days After Application, TRZAS
[8] = Abutilon theophrasti, velvetleaf (Abutilon theophrasti), read-out: Visual Growth Reduction (%) 14 Days After Application, ABUTH
[9] = Amaranthus retroflexus, redroot pigweed (Amaranthus retroflexus), read-out: Visual Growth Reduction (%) 14 Days After Application, AMARE
[10] = Brassica napus, oilseed rape, canola (Brassica napus), read-out: Visual Growth Reduction (%) 14 Days After Application, BRSNN
[11] = Chenopodium album, lambsquarters (Chenopodium album), read-out: Visual Growth Reduction (%) 14 Days After Application, CHEAL
[12] = Euphorbia heterophylla, wild poinsettia (Euphorbia heterophylla), read-out: Visual Growth Reduction (%) 14 Days After Application, EPHHL
[13] = Helianthus annuus, sunflower (Helianthus annuus), read-out: Visual Growth Reduction (%) 14 Days After Application, HELAN
[14] = Zea mays, maize, corn (Zea mays), read-out: Visual Growth Reduction (%) 14 Days After Application, ZEAMX

| SMILES | pest or weed control at 35 g/ha [1, 3] [%] | pest or weed control at 70 g/ha [1, 3] [%] | pest or weed control at 140 g/ha [1, 3] [%] | pest or weed control at 35 g/ha [1, 4] [%] | pest or weed control at 70 g/ha [1, 4] [%] | pest or weed control at 140 g/ha [1, 4] [%] | pest or weed control at 35 g/ha [1, 5] [%] | pest or weed control at 70 g/ha [1, 5] [%] | pest or weed control at 140 g/ha [1, 5] [%] | pest or weed control at 35 g/ha [1, 6] [%] | pest or weed control at 70 g/ha [1, 6] [%] | pest or weed control at 140 g/ha [1, 6] [%] | pest or weed control at 35 g/ha [1, 7] [%] | pest or weed control at 70 g/ha [1, 7] [%] | pest or weed control at 140 g/ha [1, 7] [%] | pest or weed control at 35 g/ha [2, 8] [%] | pest or weed control at 70 g/ha [2, 8] [%] | pest or weed control at 140 g/ha [2, 8] [%] | pest or weed control at 35 g/ha [2, 9] [%] | pest or weed control at 70 g/ha [2, 9] [%] | further results |
| --- | --- | --- | --- | --- | --- | --- | --- | --- | --- | --- | --- | --- | --- | --- | --- | --- | --- | --- | --- | --- | --- |
| COc1c(N)nc(-c2ccc3cc[nH]c3c2)nc1C(=O)O [Compound 1.33] | 0 to 29 | 0 to 29 | 0 to 29 | 0 to 29 | 0 to 29 | 0 to 29 | 0 to 29 | 0 to 29 | 0 to 29 | 0 to 29 | 0 to 29 | 0 to 29 | 0 to 29 | 0 to 29 | 30 to 44 | 0 to 29 | 0 to 29 | 0 to 29 | 60 to 74 | 60 to 74 | pest or weed control at 140 g/ha [2, 9]: 75 to 84%; pest or weed control at 35 g/ha [2, 10]: 95 to 100%; pest or weed control at 70 g/ha [2, 10]: 95 to 100%; pest or weed control at 140 g/ha [2, 10]: 95 to 100%; pest or weed control at 35 g/ha [2, 11]: 0 to 29%; pest or weed control at 70 g/ha [2, 11]: 45 to 59%; pest or weed control at 140 g/ha [2, 11]: 60 to 74%; pest or weed control at 35 g/ha [2, 12]: 45 to 59%; pest or weed control at 70 g/ha [2, 12]: 60 to 74%; pest or weed control at 140 g/ha [2, 12]: 75 to 84%; pest or weed control at 35 g/ha [2, 13]: 60 to 74%; pest or weed control at 70 g/ha [2, 13]: 60 to 74%; pest or weed control at 140 g/ha [2, 13]: 75 to 84%; melting point: 154 to 157 °C |
| COC(=O)c1nc(-c2ccc3cc[nH]c3c2)c(C)c(N)c1Cl [Compound 1.28] | 0 to 29 | 0 to 29 | 0 to 29 | 0 to 29 | 0 to 29 | 0 to 29 | 0 to 29 | 0 to 29 | 0 to 29 | 0 to 29 | 0 to 29 | 0 to 29 | 0 to 29 | 30 to 44 | 30 to 44 | 85 to 94 | 85 to 94 | 95 to 100 | 0 to 29 | 0 to 29 | pest or weed control at 35 g/ha [1, 14]: 0 to 29%; pest or weed control at 70 g/ha [1, 14]: 0 to 29%; pest or weed control at 140 g/ha [1, 14]: 0 to 29%; pest or weed control at 140 g/ha [2, 9]: 60 to 74%; pest or weed control at 35 g/ha [2, 10]: 75 to 84%; pest or weed control at 70 g/ha [2, 10]: 85 to 94%; pest or weed control at 140 g/ha [2, 10]: 85 to 94%; pest or weed control at 35 g/ha [2, 11]: 45 to 59%; pest or weed control at 70 g/ha [2, 11]: 60 to 74%; pest or weed control at 140 g/ha [2, 11]: 60 to 74%; pest or weed control at 35 g/ha [2, 12]: 0 to 29%; pest or weed control at 70 g/ha [2, 12]: 0 to 29%; pest or weed control at 140 g/ha [2, 12]: 0 to 29%; pest or weed control at 35 g/ha [2, 13]: 95 to 100%; pest or weed control at 70 g/ha [2, 13]: 95 to 100%; pest or weed control at 140 g/ha [2, 13]: 95 to 100%; melting point: 231 to 234 °C |

Source: US20170050957A1, “4-AMINO-6-(HETEROCYCLIC)PICOLINATES AND 6-AMINO-2-(HETEROCYCLIC)PYRIMIDINE-4-CARBOXYLATES AND THEIR USE AS HERBICIDES” (Dow AgroSciences LLC, priority 2013, published 2017)
